Data reported in paper PMC12040169 (PLOS Biology, 2025).

test: in vitro; details: human, hela cells, % viability

Row | Structure (SMILES) | viability at 28.5 h, 10 µM [%]
1 | O=C(c1cn(-c2cc(Nc3ccccc3)ncn2)cn1)N1CCOCC1 [CBK288610] | 103
2 | O=C(NC1CCCN(c2cc(-c3ccncc3)n[nH]2)C1)c1ccsc1 (stereo not shown) [CBK288619] | 104
3 | O=C(c1ccncc1)N1CCCC1(CO)Cc1ccccc1 (stereo not shown) [CBK288620] | 96.5
4 | Brc1ccc(-c2ccnc3nc(-c4ccncc4)nn23)cc1 [CBK288623] | 102
5 | Cc1nc2ccccn2c1-c1csc(N)n1 [CBK288628B] | 91.7
6 | CC(C)(C)CC(=O)N1C[C@@H]2C[C@H](C1)c1ccc(NS(=O)(=O)c3cccs3)c(=O)n1C2 [CBK288708] | 80.6
7 | CCCS(=O)(=O)Nc1ccc(=O)n2c1[C@@H]1C[C@@H](CN(C(=O)c3ccc(OC)cc3)C1)C2 [CBK288711] | 78.3
8 | O=C(Nc1ccccc1)Nc1ccc(=O)n2c1[C@@H]1C[C@@H](CN(C(=O)c3ccc(F)cc3)C1)C2 [CBK288714] | 104
9 | O=C(Nc1ccc(=O)n2c1[C@@H]1C[C@@H](CN(C(=O)Nc3ccc(F)cc3)C1)C2)c1ccccc1 [CBK288715] | 89.9
10 | O=C(NC1CC1)[C@H]1O[C@H](CCN2CCN(c3ccccc3)CC2)CC[C@@H]1O [CBK288717] | 96.8
11 | C#CCN(C)CC[C@@H]1CC[C@H](O)[C@@H](C(=O)NC(C)C)O1 [CBK288718] | 109
12 | CC(C)NC(=O)[C@H]1O[C@H](CCN2CCN(c3ccccc3)CC2)CC[C@@H]1O [CBK288719] | 123
13 | CC(C)NC(=O)[C@H]1O[C@H](CCN2CCN(c3ccc(F)cc3)CC2)CC[C@@H]1O [CBK288721] | 98.8
14 | CC(C)NC(=O)[C@H]1O[C@H](CCN2CCN(c3ccccn3)CC2)CC[C@@H]1O [CBK288722] | 90.7
15 | C#CCN(C)CC[C@@H]1CC[C@H](O)[C@@H](C(=O)N2CCOCC2)O1 [CBK288723] | 108
16 | O=C(Nc1ccccc1)[C@H]1O[C@H](CCN2CCN(c3ccccn3)CC2)CC[C@@H]1O [CBK288726] | 87.9
17 | C#CCNC(=O)[C@H]1O[C@H](CCN2CCCCC2)CC[C@@H]1O [CBK288728] | 101
18 | CC(C)NC(=O)[C@H]1CN2CCC1C[C@@H]2Cn1cc(-c2cccc(O)c2)nn1 (stereo partly shown) [CBK288731] | 91.7
19 | CC(C)NC(=O)[C@H]1CN2CCC1C[C@@H]2Cn1cc(C2(O)CCCCC2)nn1 (stereo partly shown) [CBK288732] | 99.3
20 | COCc1cn(C[C@H]2CC3CCN2C[C@@H]3C(=O)NC(C)C)nn1 (stereo partly shown) [CBK288733] | 89.2
21 | O=C([C@H]1CN2CCC1C[C@@H]2Cn1cc(COc2ccccc2)nn1)N1CCOCC1 (stereo partly shown) [CBK288734] | 113
22 | CC(C)(C)c1cn(C[C@H]2CC3CCN2C[C@@H]3C(=O)N2CCOCC2)nn1 (stereo partly shown) [CBK288735] | 87.8
23 | Cn1nc(C2CCCC2)cc1[C@H]1CN2CC[C@H]1C[C@@H]2CNS(C)(=O)=O [CBK288742] | 91.5
24 | CC[C@H]1C[N@@]2CC[C@H]1C[C@@H]2CNS(=O)(=O)c1cccc(C#N)c1 [CBK288746] | 96.9
25 | C=C[C@H]1C[N@@]2CC[C@H]1C[C@@H]2CNS(=O)(=O)c1ccc(NC(C)=O)cc1 [CBK288749] | 98.9
26 | C#C[C@H]1C[N@@]2CC[C@H]1C[C@@H]2CNS(=O)(=O)c1ccc(NC(C)=O)cc1 [CBK288752] | 103

Row | Structure (SMILES) | viability at 28.5 h, 10 µM [%]
27 | C#C[C@H]1C[N@@]2CC[C@H]1C[C@@H]2CNC(=O)Nc1cccc(C#N)c1 [CBK288754] | 97.2
28 | COc1ccc(S(=O)(=O)NC[C@H]2C[C@@H]3CC[N@]2C[C@@H]3CN2CCOCC2)cc1 [CBK288761] | 87.7
29 | N#Cc1cccc(NC(=O)NC[C@H]2C[C@@H]3CC[N@]2C[C@@H]3CN2CCOCC2)c1 [CBK288763] | 108
30 | N#Cc1cccc(NC(=O)NC[C@H]2C[C@@H]3CC[N@]2C[C@@H]3CN2CCCCC2)c1 [CBK288765] | 99.5
31 | CC(=O)c1ccc(NC(=O)NC[C@H]2C[C@@H]3CC[N@]2C[C@@H]3CN2CCCCC2)cc1 [CBK288766] | 92.3
32 | CC[C@H]1CN(C(=O)c2cccnc2)CC[C@H]1CC(=O)N1CCC(C(N)=O)CC1 [CBK288772] | 104
33 | CC[C@H]1CN(C(=O)c2cccnc2)CC[C@H]1CC(=O)NCc1cccs1 [CBK288773] | 89.7
34 | CC[C@H]1CN(C(=O)NC(C)C)CC[C@H]1CC(=O)NCc1ccc2c(c1)OCO2 [CBK288775] | 97.9
35 | CC[C@H]1CN(C(=O)Nc2cccc(OC)c2)CC[C@H]1CC(=O)O [CBK288778] | 110
36 | O=C(O)C[C@@H]1CCN(C(=O)Nc2ccccc2)C[C@@H]1CCN1CCCCC1 [CBK288782] | 110
37 | CC(=O)NCCN1CC[C@H]2CN(C(=O)COc3ccccc3)CC[C@H]2CC1=O [CBK288783] | 84.6
38 | CC(=O)NCCN1CC[C@H]2CN(C(=O)c3cc(C)on3)CC[C@H]2CC1=O [CBK288785] | 103
39 | COc1ccc(OC)c(S(=O)(=O)N2CC[C@H]3CC(=O)N(CCN(C)C)CC[C@H]3C2)c1 [CBK288788] | 104
40 | C=CCNC(=O)N1CC[C@H]2CC(=O)N(Cc3ccc(OC)cc3)CC[C@H]2C1 [CBK288790] | 86.9
41 | C=CCNC(=O)N1CC[C@H]2CC(=O)N(Cc3cccnc3)CC[C@H]2C1 [CBK288791] | 113
42 | CCNC(=O)N1CC[C@H]2CC(=O)N(Cc3cccnc3)CC[C@H]2C1 [CBK288792] | 85.6
43 | O=C1C[C@@H]2CCN(C(=O)NC3CCCCC3)C[C@@H]2CCN1CCN1CCNC1=O [CBK288796] | 96.4
44 | COc1ccc(NC(=O)N2CC[C@H]3CC(=O)N(CCN4CCNC4=O)CC[C@H]3C2)cc1 [CBK288797] | 86.8
45 | CC(C)(C)c1cc(C[C@H]2CNCC[C@H]2CC(=O)N2CCN(c3ccc(F)cc3)CC2)no1 [CBK288800] | 94.8
46 | Cc1nn(CCC#N)c(C)c1[C@@H]1C=C[C@@H](NC(=O)Nc2ccc(Cl)cc2)C1 [CBK288803] | 95.8
47 | COc1ccc(NC(=O)N[C@@H]2C=C[C@@H](c3c(C)nn(CCC#N)c3C)C2)cc1 [CBK288804] | 94.2
48 | C=CCNC(=O)N[C@H]1[C@H](O)[C@@H](N2CCC(C(=O)OC)CC2)[C@@H]2OC[C@H]1O2 [CBK288807] | 82.1
49 | CC(=O)N1CCN([C@H]2[C@@H]3OC[C@@H](O3)[C@@H](NCC3CCCCC3)[C@@H]2O)CC1 [CBK288809] | 90.6
50 | O[C@H]1[C@H](NCc2ccco2)[C@H]2CO[C@H](O2)[C@@H]1N1CCC(Cc2ccccc2)CC1 [CBK288815] | 99.1
51 | C=CCNC(=O)N[C@H]1[C@H](O)[C@@H](N(CC)CC)[C@@H]2OC[C@H]1O2 [CBK288817] | 91.1
52 | C=CCNC(=O)N[C@H]1[C@H](O)[C@@H](N2CCN(c3ccccc3OC)CC2)[C@@H]2OC[C@H]1O2 [CBK288818] | 89.7

Row | Structure (SMILES) | viability at 28.5 h, 10 µM [%]
53 | O[C@H]1[C@H](NCC2CC2)[C@H]2CO[C@H](O2)[C@@H]1N1CCOCC1 [CBK288819] | 86.4
54 | COc1cccc(NC(=O)N[C@H]2[C@H](O)[C@@H](N3CCOCC3)[C@@H]3OC[C@H]2O3)c1 [CBK288821] | 109
55 | O[C@H]1[C@H](NCc2ccco2)[C@H]2CO[C@H](O2)[C@@H]1N1CCCCC1 [CBK288825] | 106
56 | Cn1c(CN2C[C@H](O)C[C@H]2c2nc(-c3ccccc3)no2)nc2ccccc21 [CBK288834] | 78.7
57 | O[C@@H]1C[C@@H](c2nc(-c3ccncc3)no2)N(Cc2ccc(F)cc2)C1 [CBK288838] | 94.3
58 | O=[N+]([O-])c1ccccc1CN1C[C@H](O)C[C@H]1c1nc(-c2ccncc2)no1 [CBK288839] | 91.2
59 | O[C@@H]1C[C@@H](c2nc(-c3cccnc3)no2)N(Cc2cccs2)C1 [CBK288840] | 111
60 | N#Cc1cccc(CN2C[C@H](O)C[C@H]2c2nc(Cc3ccccc3)no2)c1 [CBK288842] | 87.5
61 | COc1ccc(-c2noc([C@@H]3C[C@@H](O)CN3Cc3cccc(C#N)c3)n2)cc1 [CBK288843] | 92.4
62 | CC(=O)N1CCC(N2C[C@H](O)C[C@H]2c2nc(C3CC3)no2)CC1 [CBK288845] | 93.6
63 | O=[N+]([O-])c1cccc(-c2noc([C@@H]3C[C@@H](O)CN3C3CCOCC3)n2)c1 [CBK288847] | 101
64 | O[C@@H]1C[C@@H](c2nc(-c3ccc(F)cc3)no2)N(Cc2ncc[nH]2)C1 [CBK288849] | 121
65 | Cc1ccc(-c2noc([C@@H]3C[C@H](NC(=O)CCC(=O)O)CN3C)n2)cc1 [CBK288852] | 93.8
66 | CN1C[C@@H](NC(=O)COc2ccccc2)C[C@H]1c1nc(-c2ccncc2)no1 [CBK288855] | 90.4
67 | CN1C[C@@H](NC(=O)Nc2ccccc2)C[C@H]1c1nc(-c2cccnc2)no1 [CBK288858] | 104
68 | CN1C[C@@H](NS(C)(=O)=O)C[C@H]1c1nc(-c2ccc3ccccc3c2)no1 [CBK288859] | 106
69 | COc1ccc(-c2noc([C@@H]3C[C@H](NC(=O)c4ccc(F)cc4)CN3C)n2)cc1 [CBK288861] | 118
70 | COc1ccc(NC(=O)N[C@H]2C[C@@H](c3nc(-c4ccc(OC)cc4)no3)N(C)C2)cc1 [CBK288862] | 102
71 | COc1ccc(-c2noc([C@@H]3C[C@H](NS(=O)(=O)Cc4ccccc4)CN3C)n2)cc1 [CBK288863] | 93.2
72 | CC(C)c1noc([C@@H]2C[C@H](NS(=O)(=O)c3ccc(F)cc3)CN2C)n1 [CBK288864] | 114
73 | CN1C[C@@H](NC(=O)c2ccc(C#N)cc2)C[C@H]1c1nc(-c2ccc(F)cc2)no1 [CBK288865] | 92.1
74 | O=C(NC[C@H]1C[C@@H]2CC[N@]1C[C@@H]2CN1CCN(c2ccccn2)CC1)c1ccco1 [CBK288867] | 107
75 | O=C(O)c1ccc(CN2C[C@H](O)C[C@H]2c2nc(-c3ccccn3)no2)cc1 [CBK288869] | 90
76 | O=C(O)c1ccc(CN2C[C@H](O)C[C@H]2c2nc(-c3ccc(F)cc3)no2)cc1 [CBK288870] | 112
